Key:
Experiment in all cases: combination Emax (second highest fraction inhibited in the dose matrix, 72 h); higher = more inhibition; extreme values may be limits of the assay
[1] = tested on: ALL-PO (B-Lymphoblastic Leukemia)
Summary of the method: (§1)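 Bliss excess equals the observed combination effect minus the expected value EA + EB − EA·EB, where EA and EB are the effects of each agent alone. Combination Emax is the second-highest inhibition within the matrix. Inhibition was scaled from CellTiter-Glo 2.0 luminescence, with 0 set by vehicle wells and 1 by blank wells, after 72 hours of two-drug dosing of cells plated in 1536-well plates.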

[2] = tested on: BFTC-909 (Kidney Carcinoma)
Summary of the method: as §1

EW-11 (Ewing's Sarcoma) = tested on: EW-11 (Ewing's Sarcoma)
Summary of the method: as §1

GAMG (Glioblastoma) = tested on: GAMG (Glioblastoma)
Summary of the method: as §1

[3] = tested on: HeLa (Cervical Carcinoma)
Summary of the method: as §1

[4] = tested on: Hs-746T (Gastric Carcinoma)
Summary of the method: as §1

[5] = tested on: KYAE-1 (Esophageal Adenocarcinoma)
Summary of the method: as §1

[6] = tested on: L-428 (Hodgkin's Lymphoma)
Summary of the method: as §1

[7] = tested on: LCLC-97TM1 (Non-Small Cell Lung Carcinoma)
Summary of the method: as §1

[8] = tested on: LNZTA3WT4 (Low Grade Glioma)
Summary of the method: as §1

LOXIMVI (Melanoma) = tested on: LOXIMVI (Melanoma)
Summary of the method: as §1

[9] = tested on: LS-123 (Colorectal Carcinoma)
Summary of the method: as §1

NCI-H2722 (Mesothelioma) = tested on: NCI-H2722 (Mesothelioma)
Summary of the method: as §1

[10] = tested on: NCI-H524 (Small Cell Lung Carcinoma)
Summary of the method: as §1

[11] = tested on: OV-56 (Ovarian Carcinoma)
Summary of the method: as §1

[12] = tested on: SAS (Oral Cavity Carcinoma)
Summary of the method: as §1

[13] = tested on: SNU-16 (Gastric Carcinoma)
Summary of the method: as §1

[14] = tested on: SNU-449 (Hepatocellular Carcinoma)
Summary of the method: as §1

[15] = tested on: SW1710 (Bladder Carcinoma)
Summary of the method: as §1

[16] = tested on: WSU-NHL (B-Cell Non-Hodgkin's Lymphoma)
Summary of the method: as §1

Compound | combination Emax [1] | combination Emax [2] | combination Emax (EW-11 (Ewing's Sarcoma)) | combination Emax (GAMG (Glioblastoma)) | combination Emax [3] | combination Emax [4] | combination Emax [5] | combination Emax [6] | combination Emax [7] | combination Emax [8] | combination Emax (LOXIMVI (Melanoma)) | combination Emax [9] | combination Emax (NCI-H2722 (Mesothelioma)) | combination Emax [10] | combination Emax [11] | combination Emax [12] | combination Emax [13] | combination Emax [14] | combination Emax [15] | combination Emax [16]
CN(C)CCCOc1ccc(-c2ccc3ncc4c(c3c2)n(C2CCOCC2)c(=O)n4C)cn1 [AZD0156] + C=CCn1c(=O)c2cnc(Nc3ccc(N4CCN(C)CC4)cc3)nc2n1-c1cccc(C(C)(C)O)n1 [AZD1775] (first compound max 1 µM, partner max 1 µM) | 0.959 | 0.67 | 0.486 | 0.266 | 0.498 | 0.491 | 0.426 | 0.824 | 0.828 | 0.783 | 0.753 | 0.609 | 0.268 | 0.792 | 0.19 | 0.548 | 0.919 | 0.142 | 0.337 | 0.948
CN(C)CCCOc1ccc(-c2ccc3ncc4c(c3c2)n(C2CCOCC2)c(=O)n4C)cn1 [AZD0156] + CCN(CCO)CCCOc1ccc2c(Nc3cc(CC(=O)Nc4cccc(F)c4)[nH]n3)ncnc2c1 [AZD2811] (first compound max 1 µM, 7x7, partner max 1 µM) | 0.977 | 0.127 | 0.409 | 0.22 | 0.156 | 0.155 | 0.103 | 0.187 | 0.371 | 0.105 | 0.4 | 0.161 | 0.146 | 0.973 | 0.062 | 0.0904 | 0.593 | 0.0548 | 0.0832 | 0.879
CN(C)CCCOc1ccc(-c2ccc3ncc4c(c3c2)n(C2CCOCC2)c(=O)n4C)cn1 [AZD0156] + C[C@@H]1COCCN1C2=NC(=NC(=C2)C3(CC3)[S@](=N)(=O)C)C4=C5C=CNC5=NC=C4 [AZD6738] (first compound max 1 µM, 7x7, partner max 10 µM) | 0.922 | 0.813 | 0.668 | 0.422 | 0.679 | 0.636 | 0.0979 | 0.777 | 0.88 | 0.778 | 0.908 | 0.644 | 0.248 | 0.858 | 0.741 | 0.855 | 0.982 | 0.176 | 0.509 | 0.998
CN(C)CCCOc1ccc(-c2ccc3ncc4c(c3c2)n(C2CCOCC2)c(=O)n4C)cn1 [AZD0156] + O=C(c1cc(Cc2n[nH]c(=O)c3ccccc23)ccc1F)N1CCN(C(=O)C2CC2)CC1 [Olaparib] (first compound max 3 µM, partner max 3 µM) | 0.505 | 0.527 | 0.539 | 0.336 | 0.131 | 0.378 | 0.271 | 0.228 | 0.109 | 0.206 | 0.377 | 0.37 | 0.181 | 0.496 | 0.0996 | 0.212 |  | 0.0695 | 0.0777 | 0.879
C=CCn1c(=O)c2cnc(Nc3ccc(N4CCN(C)CC4)cc3)nc2n1-c1cccc(C(C)(C)O)n1 [AZD1775] + C1CN(CCC1(C(=O)N[C@@H](CCO)C2=CC=C(C=C2)Cl)N)C3=NC=NC4=C3C=CN4 [Capivasertib] (first compound max 3 µM, partner max 3 µM) | 0.754 | 0.922 | 0.69 | 0.829 | 0.877 | 0.772 | 0.579 | 0.759 | 0.793 | 0.804 | 0.793 | 0.636 | 0.262 | 0.847 | 0.389 | 0.798 |  | 0.271 | 0.475 | 1
C=CCn1c(=O)c2cnc(Nc3ccc(N4CCN(C)CC4)cc3)nc2n1-c1cccc(C(C)(C)O)n1 [AZD1775] + C[C@@H]1COCCN1C2=NC(=NC(=C2)C3(CC3)[S@](=N)(=O)C)C4=C5C=CNC5=NC=C4 [AZD6738] (first compound max 1 µM, partner max 10 µM) | 0.977 | 0.906 | 0.72 | 0.596 | 0.948 | 0.691 | 0.588 | 0.891 | 0.891 | 0.9 | 0.883 | 0.892 | 0.403 | 0.97 | 0.849 | 0.908 | 0.989 | 0.409 | 0.713 | 1
